# In ChEMBL document CHEMBL3580558, “Salternamides A-D from a Halophilic Streptomyces sp. Actinobacterium” (J Nat Prod, 2015):
# Legend:
# K562 = assay: Antiproliferative activity against human K562 cells after 3 days by sulforhodamine B assay; type: functional, cell-based; settings: K562, 72 h
# MDA-MB-231 = assay: Antiproliferative activity against human MDA-MB-231 cells after 3 days by sulforhodamine B assay; type: functional, cell-based; settings: MDA-MB-231, 72 h
# [1] = Antiproliferative activity against human SKHEP1 cells after 3 days by sulforhodamine B assay; type: functional, cell-based; settings: SK-HEP1, 72 h
# [2] = Inhibition of porcine cerebral cortex Na+/K+ ATPase incubated at 37 degC for 30 mins using 3-O-methylfluorescein phosphate and […] by fluorometry; type: tissue-based, Sus scrofa
# [3] = Antiproliferative activity against human SNU638 cells after 3 days by sulforhodamine B assay; type: functional, cell-based; settings: SNU-638, 72 h
# A549 = assay: Antiproliferative activity against human A549 cells after 3 days by sulforhodamine B assay; type: functional, cell-based; settings: A549, 72 h
# HCT-116 = assay: Antiproliferative activity against human HCT116 cells after 3 days by sulforhodamine B assay; type: functional, cell-based; settings: HCT-116, 72 h
SMILES,IC50 (K562),IC50 (MDA-MB-231),IC50 ([2]; read-out: IC50),IC50 (A549),IC50 (HCT-116),IC50 [2],IC50 [1],IC50 [3]
CC(C)=C[C@H](C)C[C@H](C)/C=C/C(=O)NC1=C[C@](O)(CCCCC(=O)O)C=CC1=O,> 100 µM,27 µM,,82 µM,55 µM,Not Active,56 µM,27 µM
CC(C)=C[C@H](C)C[C@H](C)/C=C/C(=O)NC1=C[C@](O)(CCCCC(=O)O)[C@@H](O)CC1=O,> 100 µM,> 100 µM,> 100 µM,> 100 µM,> 100 µM,,> 100 µM,> 100 µM
C[C@@H]1O[C@@H](O[C@H]2C[C@@H](O)[C@]3(CO)[C@H]4[C@H](O)C[C@]5(C)[C@@H](C6=CC(=O)OC6)CC[C@]5(O)[C@@H]4CC[C@]3(O)C2)[C@H](O)[C@H](O)[C@H]1O [OUABAIN],,,3.8 µM,,,,,

# The remaining compounds from weak to strong by IC50 (K562), led by results:
IC50 (K562),IC50 (MDA-MB-231),IC50 ([2]; read-out: IC50),IC50 (A549),IC50 (HCT-116),IC50 [2],SMILES,IC50 [1],IC50 [3]
59 µM,92 µM,30 µM,> 100 µM,34 µM,,CC(C)=C[C@H](C)C[C@H](C)/C=C(\C)C(=O)NC1=C[C@](O)(CCCCC(=O)O)[C@@H](O)CC1=O,32 µM,15 µM
8.9 µM,8.9 µM,62 µM,36 µM,0.96 µM,,CC(C)=C[C@H](C)C[C@H](C)/C=C/C(=O)NC1=C[C@](O)(CCCCC(=O)O)C=C(Cl)C1=O,2.7 µM,0.96 µM
3.1 µM,11 µM,,0.8 µM,,,COc1cc([C@@H]2c3cc4c(cc3[C@@H](O[C@@H]3O[C@@H]5CO[C@@H](C)O[C@H]5[C@H](O)[C@H]3O)[C@H]3COC(=O)[C@H]23)OCO4)cc(OC)c1O [ETOPOSIDE],1.1 µM,0.5 µM
